In US20240382629A1, “HETEROBIVALENT AND HOMOBIVALENT AGENTS TARGETING FIBROBLAST ACTIVATION PROTEIN ALPHA AND/OR PROSTATE-SPECIFIC MEMBRANE ANTIGEN” (The Johns Hopkins University, priority 2021, published 2024):

Columns and labels:
DPPIV = DPPIV (Homo sapiens (Human), UniProt P27487); test: DPPIV inhibition assay (recombinant enzyme, H-Gly-Pro-AMC substrate); type: biochemical
Experimental: (§1) PSMA binding affinities of the compounds were determined using a competitive inhibition assay as previously reported. […] FAP, prolyl endopeptidase (PREP), and […] (DPPIV) inhibition assays: Recombinant enzymes (FAP, PREP, DPPIV) were purchased from R&D Systems (Minneapolis, MN). […] Z-Gly-Pro-AMC was used as a substrate for FAP and PREP. H-Gly-Pro-AMC was used as a substrate for DPPIV. The recombinant enzyme (0.4 μg/mL) was incubated with varying amounts of the test articles in the presence of the designated substrate (80 μM) for 10 min at room temperature. Fluorescence intensity was measured with 380 nm excitation and 460 nm emission using the Cytation 5 Cell Imaging Multi-Mode Reader (BioTek, Winooski, VT). IC50 and Ki values were obtained using a sigmoidal dose-response function.

FAP = FAP (Homo sapiens (Human), UniProt Q12884); test: FAP inhibition assay (recombinant enzyme, Z-Gly-Pro-AMC substrate); type: biochemical; conditions: Table 3
FAP, sequence (Q12884 whole entry): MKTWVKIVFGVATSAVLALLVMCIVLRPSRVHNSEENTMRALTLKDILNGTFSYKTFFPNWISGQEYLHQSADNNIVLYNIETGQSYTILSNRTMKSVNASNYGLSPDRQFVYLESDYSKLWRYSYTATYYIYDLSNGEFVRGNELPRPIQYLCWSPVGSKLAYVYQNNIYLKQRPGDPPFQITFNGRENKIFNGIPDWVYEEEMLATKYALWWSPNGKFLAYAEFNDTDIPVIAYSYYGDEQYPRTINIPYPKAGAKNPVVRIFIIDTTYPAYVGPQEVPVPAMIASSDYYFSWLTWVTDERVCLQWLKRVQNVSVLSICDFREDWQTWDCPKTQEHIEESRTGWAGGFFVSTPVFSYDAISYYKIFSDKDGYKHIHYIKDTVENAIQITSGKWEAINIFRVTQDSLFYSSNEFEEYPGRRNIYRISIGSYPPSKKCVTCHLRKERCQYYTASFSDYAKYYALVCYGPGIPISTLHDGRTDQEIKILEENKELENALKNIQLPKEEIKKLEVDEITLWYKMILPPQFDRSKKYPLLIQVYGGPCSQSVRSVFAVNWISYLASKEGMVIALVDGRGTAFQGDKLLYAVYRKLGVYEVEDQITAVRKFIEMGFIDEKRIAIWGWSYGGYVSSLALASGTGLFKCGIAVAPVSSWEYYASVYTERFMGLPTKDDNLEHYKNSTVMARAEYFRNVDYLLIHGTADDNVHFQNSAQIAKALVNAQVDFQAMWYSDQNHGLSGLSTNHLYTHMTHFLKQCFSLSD
Experimental: as §1

DPPIV, sequence (P27487 whole entry): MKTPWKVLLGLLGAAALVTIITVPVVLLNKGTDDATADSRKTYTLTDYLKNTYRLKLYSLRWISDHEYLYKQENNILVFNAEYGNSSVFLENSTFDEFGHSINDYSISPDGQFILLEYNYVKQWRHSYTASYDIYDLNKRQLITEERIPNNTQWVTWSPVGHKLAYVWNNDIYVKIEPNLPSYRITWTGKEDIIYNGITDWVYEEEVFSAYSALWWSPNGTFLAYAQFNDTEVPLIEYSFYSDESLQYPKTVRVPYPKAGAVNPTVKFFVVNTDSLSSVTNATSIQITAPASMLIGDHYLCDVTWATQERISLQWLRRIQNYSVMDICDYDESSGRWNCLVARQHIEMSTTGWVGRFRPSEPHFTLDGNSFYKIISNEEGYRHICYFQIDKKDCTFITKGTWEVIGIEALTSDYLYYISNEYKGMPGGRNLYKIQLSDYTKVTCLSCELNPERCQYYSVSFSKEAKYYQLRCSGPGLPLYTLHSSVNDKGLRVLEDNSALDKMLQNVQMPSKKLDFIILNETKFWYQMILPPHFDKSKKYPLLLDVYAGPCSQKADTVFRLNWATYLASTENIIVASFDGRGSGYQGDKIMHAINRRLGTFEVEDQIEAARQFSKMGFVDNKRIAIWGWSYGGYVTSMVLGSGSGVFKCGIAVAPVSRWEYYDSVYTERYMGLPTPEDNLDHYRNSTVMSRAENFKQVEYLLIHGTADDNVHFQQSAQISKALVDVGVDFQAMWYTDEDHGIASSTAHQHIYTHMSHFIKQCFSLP

SMILES	Ki (DPPIV) [nM]	IC50 (FAP) [nM]	Ki (FAP; read-out: FAP Ki) [nM]	IC50 (DPPIV; Table 3, read-out: DPPIV IC50) [nM]
N#C[C@@H]1CC(F)(F)CN1C(=O)CNC(=O)c1ccnc2ccc(OCCCN3CCN(C(=O)CN4CCN(CC(=O)O)CCN(CC(=O)O)CCN(CC(=O)O)CC4)CC3)cc12 [FAPI-04, reference compound]	800	–	–	–
N#C[C@@H]1CCCN1C(=O)CNC(=O)c1ccnc2ccc(F)cc12 [JHU1220450]	–	0.119	0.0239	> 20000
